Consider 22 molecules from US20240400555A1 (Initial Therapeutics, Inc., priority 2023, published 2024).

The subject of the first assay is MV-4-11 cells. Description: Cell Viability Assay in MV-4-11 Cells. Type of assay: cell-based. The settings on record: Homo sapiens, MV4-11, 72 h. A digest of the protocol: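 MV-4-11 cells at 7,000/well in IMDM with 10% FBS, exposed to compound for 72 h. Viability by CellTiter-Glo luminescence, normalized to DMSO as 100%, fitted with a four-parameter curve.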
Turning to `Cc1cccc2ccnc(N(C(=O)N3CCC[C@H](CCC(=O)Nc4ccccc4)C3)[C@@H]3CCCNC3)c12` [Example 344, N-(8-methylisoquinolin-1-yl)-3-(3-oxo-3-(phenylamino)propyl)-N—((R)-piperidin-3-yl) piperidine-1-carboxamide], it took 930 nM to reach half-maximal inhibition (IC50). Still for that read-out and setting: for `[2H]C([2H])([2H])c1nnc(-c2ccc(C(=O)N(c3nccc4scc(C)c34)[C@@H]3CCCNC3)c(F)c2)s1` [Example 780, 2-fluoro-N-(3-methylthieno[3,2-c]pyridin-4-yl)-N-[(3R)-3-piperidyl]-4-[5-(trideuteriomethyl)-1,3,4-thiadiazol-2-yl] benzamide] the value was 120 nM. On to `Cn1cc(-c2ccc(C(=O)N(c3nccc4sc(C(=O)Nc5ccncc5)cc34)[C@@H]3CCCNC3)c(F)c2)nn1` [Example 813, (R)-4-(2-fluoro-4-(1-methyl-1H-1,2,3-triazol-4-yl)-N-(piperidin-3-yl)benzamido)-N-(pyridin-4-yl)thieno[3,2-c]pyridine-2-carboxamide], for which it took 550 nM to reach half-maximal inhibition (IC50).

As to `CC(C)(O)C#Cc1cc2c(N(C(=O)c3ccc(-n4nnc5cccnc54)cc3F)[C@@H]3CCCNC3)nccc2s1` [Example 376, 2-fluoro-N-[2-(3-hydroxy-3-methyl-but-1-ynyl)thieno[3,2-c]pyridin-4-yl]-N-[(3R)-3-piperidyl]-4-(triazolo[4,5-b]pyridin-3-yl)benzamide], the IC50 stood at 680 nM.

The assay is the same for the next values; noted with them: Homo sapiens, MV4-11, 72 h, MV-4-11 cells, 72 h, Cell-Titer Glo; read-out: IC50.
Turning to `CCn1cc(-c2ccc(C(=O)N(c3nccc4cc(OC)cc(C)c34)[C@@H]3CCCNC3)c(F)c2)nn1` [Example 863, 4-(1-ethyltriazol-4-yl)-2-fluoro-N-(6-methoxy-8-methyl-1-isoquinolyl)-N-[(3R)-3-piperidyl] benzamide], the IC50 was found to be 29 nM. On to `CCc1nc(Nc2ccc(C(=O)N(c3nccc4cccc(C)c34)[C@@H]3CCCNC3)c(F)c2)ncc1F` [Example 753, (R)-4-((4-ethyl-5-fluoropyrimidin-2-yl)amino)-2-fluoro-N-(8-methylisoquinolin-1-yl)-N-(piperidin-3-yl)benzamide], for which the IC50 worked out at 170 nM. As for `CCc1cc(-c2cc3c(N(C(=O)c4ccc(-n5nnc6cccnc65)cc4F)[C@@H]4CCCNC4)nccc3s2)ccn1` [Example 461, N-[2-(2-ethyl-4-pyridyl)thieno[3,2-c]pyridin-4-yl]-2-fluoro-N-[(3R)-3-piperidyl]-4-(triazolo[4,5-b]pyridin-3-yl)benzamide], the IC50 came to 720 nM. On to `Cn1cc(-c2ccc(C(=O)N(c3nccc4sc(-c5ccc(C(=O)Nc6ccccc6)cc5)cc34)[C@@H]3CCCNC3)c(F)c2)nn1` [Example 523, 2-fluoro-4-(1-methyltriazol-4-yl)-N-[2-[4-(phenylcarbamoyl)phenyl]thieno[3,2-c]pyridin-4-yl]-N-[(3R)-3-piperidyl]benzamide], for which the half-maximal inhibitory concentration (IC50) came to 920 nM. As for `Cc1cccc2ccnc(N(C(=O)c3ccc(Nc4nccc(CN5CCOCC5)n4)cc3F)[C@@H]3CCCNC3)c12` [Example 741, (R)-2-fluoro-N-(8-methylisoquinolin-1-yl)-4-((4-(morpholinomethyl)pyrimidin-2-yl)amino)-N-(piperidin-3-yl)benzamide], the half-inhibitory concentration (IC50) came out at 310 nM. As to `Cn1cc(-c2ccc(C(=O)N(c3nccc4sc(-c5ccc(C(C)(C)C(N)=O)cc5)cc34)[C@@H]3CCCNC3)c(F)c2)nn1` [Example 595], the half-maximal inhibitory concentration (IC50) worked out at 470 nM. Take `COC/C=C/c1ccnc(Nc2ccc(C(=O)N(c3nccc4cccc(C)c34)[C@@H]3CCCNC3)c(F)c2)n1` [Example 749, (R,E)-2-fluoro-4-((4-(3-methoxyprop-1-en-1-yl)pyrimidin-2-yl)amino)-N-(8-methylisoquinolin-1-yl)-N-(piperidin-3-yl)benzamide]: the IC50 was found to be 140 nM. On to `Cc1cccc2ccnc(N(C(=O)c3ccc(Nc4ncc5ccsc5n4)cc3F)[C@@H]3CCCNC3)c12` [Example 823, (R)-2-fluoro-N-(8-methylisoquinolin-1-yl)-N-(piperidin-3-yl)-4-(thieno[2,3-d]pyrimidin-2-ylamino)benzamide], for which the IC50 stood at 130 nM. Still for that read-out and setting: as for `Cc1cccc2ccnc(N(C(=O)c3ccc(Nc4nccc(N5CC[C@H](N(C)C)C5)n4)cc3F)[C@@H]3CCCNC3)c12` [Example 967, 4-({4-[(3S)-3-(dimethylamino)pyrrolidin-1-yl]pyrimidin-2-yl}amino)-2-fluoro-N-(8-methylisoquinolin-1-yl)-N-[(3R)-piperidin-3-yl]benzamide], the figure is 48 nM. Regarding `Cn1cc(-c2ccc(C(=O)N(c3nccc4sc(-c5ccc(C(O)C(F)(F)F)cc5)cc34)[C@@H]3CCCNC3)c(F)c2)nn1` (stereo partly drawn) [Example 605, 2-fluoro-4-(1-methyl-1H-1,2,3-triazol-4-yl)-N—((R)-piperidin-3-yl)-N-(2-(4-(2,2,2-trifluoro-1-hydroxyethyl)phenyl)thieno[3,2-c]pyridin-4-yl)benzamide], the IC50 came out at 470 nM. Still for that read-out and setting: for `Cc1nc(-c2ccc(C(=O)N(c3nccc4cccc(C)c34)[C@@H]3CCCNC3)c(F)c2)c(N)[nH]1` [Example 389, 4-(5-amino-2-methyl-1H-imidazol-4-yl)-2-fluoro-N-(8-methyl-1-isoquinolyl)-N-[(3R)-3-piperidyl]benzamide] the value was over 10000 nM; for `O=C(c1ccc(-n2nnc3cccnc32)cc1F)N(c1nccc2sc(CCc3ccncc3)cc12)[C@@H]1CCCNC1` [Example 503, 2-fluoro-N-[(3R)-3-piperidyl]-N-[2-[2-(4-pyridyl)ethyl]thieno[3,2-c]pyridin-4-yl]-4-(triazolo[4,5-b]pyridin-3-yl)benzamide], 2300 nM; for `Cn1ccc2ccnc(N(C(=O)c3ccc(-n4nnc5cccnc54)cc3F)[C@@H]3CCCNC3)c21` [Example 317, (R)-4-(3H-[1,2,3]triazolo[4,5-b]pyridin-3-yl)-2-fluoro-N-(1-methyl-1H-pyrrolo[2,3-c]pyridin-7-yl)-N-(piperidin-3-yl)benzamide], 79 nM. Same read-out and setting: for `C=C(C)c1ccc2c(N(C(=O)c3ccc(-c4cn(C)nn4)cc3F)[C@@H]3CCCNC3)nccc2c1` [Example 692, (R)-2-fluoro-4-(1-methyl-1H-1,2,3-triazol-4-yl)-N-(piperidin-3-yl)-N-(6-(prop-1-en-2-yl)isoquinolin-1-yl)benzamide] the value was 350 nM. For the molecule `Cc1cccc2ccnc(N(C(=O)c3ccc(Nc4nccc(N(C)CCC#N)n4)cc3F)[C@@H]3CCCNC3)c12` [Example 949, (R)-4-((4-((2-cyanoethyl)(methyl)amino)pyrimidin-2-yl)amino)-2-fluoro-N-(8-methylisoquinolin-1-yl)-N-(piperidin-3-yl)benzamide], the IC50 came out at 250 nM. Turning to `Cn1cc(-c2ccc(C(=O)N(c3nccc4cc(F)ccc34)[C@@H]3CCCNC3)nc2)nn1` [Example 803, (R)—N-(6-fluoroisoquinolin-1-yl)-5-(1-methyl-1H-1,2,3-triazol-4-yl)-N-(piperidin-3-yl)picolinamide], the IC50 was 860 nM. Same read-out and setting: for `Cc1cccc2ccnc(N(C(=O)c3ccc(-n4nnc5cccnc54)cc3Cl)[C@@H]3CCCNC3)c12` [Example 310, (R)-4-(3H-[1,2,3]triazolo[4,5-b]pyridin-3-yl)-2-chloro-N-(8-methylisoquinolin-1-yl)-N-(piperidin-3-yl) benzamide] the value was 28 nM; for `Cc1cccc2ccnc(N(C(=O)c3ccc(N4CCOCC4)cc3F)[C@@H]3CCCNC3)c12` [Example 311, (R)-2-fluoro-N-(8-methylisoquinolin-1-yl)-4-morpholino-N-(piperidin-3-yl)benzamide], 23 nM.
